Reference: ChEMBL document CHEMBL1201862, “PubChem BioAssay data set” (2004)
Where “and” joins values, the source holds several entries; their conditions need not be identical. Equal entries are not always repeated. Calls of active or inactive are those of the source.

Legend:
[1] = target: Ras and Rab interactor 1/Tyrosine-protein kinase ABL1 (Homo sapiens, UniProt P00519+Q13671); assay type: functional;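 note: biochemical TR-FRET dose-response test measuring inhibition of binding between Rin1 and Abl proteins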
Chain of Ras and Rab interactor 1/Tyrosine-protein kinase ABL1 (P00519 whole entry): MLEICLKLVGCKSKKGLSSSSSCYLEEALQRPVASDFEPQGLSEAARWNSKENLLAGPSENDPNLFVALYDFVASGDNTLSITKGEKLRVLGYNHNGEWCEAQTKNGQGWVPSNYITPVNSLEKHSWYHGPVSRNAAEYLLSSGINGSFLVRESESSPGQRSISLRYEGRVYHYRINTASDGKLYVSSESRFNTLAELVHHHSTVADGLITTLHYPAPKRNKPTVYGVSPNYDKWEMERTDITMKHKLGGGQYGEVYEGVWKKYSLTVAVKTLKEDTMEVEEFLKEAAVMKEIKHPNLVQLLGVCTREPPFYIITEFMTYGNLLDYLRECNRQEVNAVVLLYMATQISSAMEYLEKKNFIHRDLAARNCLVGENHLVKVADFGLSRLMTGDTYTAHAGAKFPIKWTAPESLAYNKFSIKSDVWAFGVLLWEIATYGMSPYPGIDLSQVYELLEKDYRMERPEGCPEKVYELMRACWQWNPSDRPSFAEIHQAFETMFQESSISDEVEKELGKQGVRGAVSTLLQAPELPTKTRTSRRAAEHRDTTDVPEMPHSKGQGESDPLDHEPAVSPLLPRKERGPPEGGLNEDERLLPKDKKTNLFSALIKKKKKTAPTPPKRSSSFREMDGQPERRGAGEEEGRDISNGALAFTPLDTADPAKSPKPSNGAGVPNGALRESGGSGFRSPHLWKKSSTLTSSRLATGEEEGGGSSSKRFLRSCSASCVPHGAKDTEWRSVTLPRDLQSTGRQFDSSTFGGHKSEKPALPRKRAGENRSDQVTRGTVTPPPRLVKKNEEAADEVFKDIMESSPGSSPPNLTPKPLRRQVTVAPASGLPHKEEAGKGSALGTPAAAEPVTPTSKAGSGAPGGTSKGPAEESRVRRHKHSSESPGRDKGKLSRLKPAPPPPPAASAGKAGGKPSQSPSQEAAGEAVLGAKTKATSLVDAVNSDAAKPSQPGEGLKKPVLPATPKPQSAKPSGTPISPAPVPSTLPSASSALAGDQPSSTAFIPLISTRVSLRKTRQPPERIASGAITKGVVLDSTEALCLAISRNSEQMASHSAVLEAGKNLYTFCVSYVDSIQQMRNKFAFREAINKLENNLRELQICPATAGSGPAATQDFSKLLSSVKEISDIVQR
Chain of Ras and Rab interactor 1/Tyrosine-protein kinase ABL1 (Q13671 whole entry): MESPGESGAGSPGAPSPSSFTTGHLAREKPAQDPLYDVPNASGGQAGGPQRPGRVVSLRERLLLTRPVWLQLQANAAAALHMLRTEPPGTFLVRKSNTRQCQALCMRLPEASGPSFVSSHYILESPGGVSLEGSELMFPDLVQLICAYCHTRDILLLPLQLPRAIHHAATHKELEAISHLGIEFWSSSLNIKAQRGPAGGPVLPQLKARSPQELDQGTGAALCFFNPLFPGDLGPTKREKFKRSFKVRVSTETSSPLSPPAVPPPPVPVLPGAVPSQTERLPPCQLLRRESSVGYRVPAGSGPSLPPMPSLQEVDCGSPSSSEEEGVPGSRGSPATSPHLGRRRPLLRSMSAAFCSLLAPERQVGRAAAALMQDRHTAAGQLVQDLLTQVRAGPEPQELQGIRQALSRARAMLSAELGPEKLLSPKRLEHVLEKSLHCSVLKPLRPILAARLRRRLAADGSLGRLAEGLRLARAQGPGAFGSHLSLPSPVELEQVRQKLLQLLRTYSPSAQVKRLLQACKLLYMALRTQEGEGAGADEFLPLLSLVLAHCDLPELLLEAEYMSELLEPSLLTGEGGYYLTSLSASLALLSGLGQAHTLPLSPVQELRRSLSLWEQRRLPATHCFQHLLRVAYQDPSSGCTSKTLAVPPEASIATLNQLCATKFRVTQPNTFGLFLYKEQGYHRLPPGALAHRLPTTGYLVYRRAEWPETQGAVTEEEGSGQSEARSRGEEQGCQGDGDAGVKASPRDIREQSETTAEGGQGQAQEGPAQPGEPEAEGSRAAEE

[2] = target: T1, Polyadenylate-binding protein 1 (Homo sapiens, UniProt P11940); assay: PABP1 MLLE–PAM2 interaction inhibitors, dose response, miRNA deadenylation inhibitor project, biochemical, fluorescence polarization, Cy5-PAM2 peptide, secondary (AID 602260); assay type: functional; conditions: read-out: IC50_Mean
T1 sequence (P11940 whole entry): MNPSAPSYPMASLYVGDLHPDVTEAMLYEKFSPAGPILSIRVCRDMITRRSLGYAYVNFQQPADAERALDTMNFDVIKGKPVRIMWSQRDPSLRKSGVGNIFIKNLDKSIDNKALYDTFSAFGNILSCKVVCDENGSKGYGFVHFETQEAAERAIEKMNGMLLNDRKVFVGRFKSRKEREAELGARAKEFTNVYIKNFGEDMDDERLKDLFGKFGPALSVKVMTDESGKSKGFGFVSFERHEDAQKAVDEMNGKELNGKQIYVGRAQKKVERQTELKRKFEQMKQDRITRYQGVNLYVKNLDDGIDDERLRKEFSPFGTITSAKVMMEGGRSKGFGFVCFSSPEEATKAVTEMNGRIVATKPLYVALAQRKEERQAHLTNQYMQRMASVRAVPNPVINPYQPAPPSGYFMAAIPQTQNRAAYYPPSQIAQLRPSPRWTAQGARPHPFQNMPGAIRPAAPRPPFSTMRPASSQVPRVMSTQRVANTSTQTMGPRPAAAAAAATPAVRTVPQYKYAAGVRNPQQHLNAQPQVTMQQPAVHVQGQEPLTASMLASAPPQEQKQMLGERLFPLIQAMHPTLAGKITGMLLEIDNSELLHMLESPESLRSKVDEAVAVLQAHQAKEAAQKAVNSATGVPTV

[3] = target: T1, Polyadenylate-binding protein 1; assay: PABP1 MLLE–PAM2 binding inhibitor potency, dose response, biochemical, fluorescence polarization, FITC-PAM2 peptide (AID 602259); assay type: functional; conditions: read-out: IC50_Mean
Prothrombin = Prothrombin (Bos taurus, UniProt P00735); assay: thrombin inhibition, dose response, biochemical, fluorescence polarization, uHTS hits (AID 602369); assay type: functional
[4] = target: 72 kDa type IV collagenase (Homo sapiens, UniProt P08253); assay: Dose Response validation of uHTS RPN11 inhibitor hits using a MMP-2 Fluorescence assay.; assay type: functional
[5] = target: 26S proteasome non-ATPase regulatory subunit 14 (Homo sapiens, UniProt O00487); assay: inhibition of proteasome subunit RPN11 – biochemical, fluorescence polarization, uHTS hits, confirmation (AID 602368); assay type: functional
Chain of 26S proteasome non-ATPase regulatory subunit 14 (O00487 whole entry, the tested form may be a part): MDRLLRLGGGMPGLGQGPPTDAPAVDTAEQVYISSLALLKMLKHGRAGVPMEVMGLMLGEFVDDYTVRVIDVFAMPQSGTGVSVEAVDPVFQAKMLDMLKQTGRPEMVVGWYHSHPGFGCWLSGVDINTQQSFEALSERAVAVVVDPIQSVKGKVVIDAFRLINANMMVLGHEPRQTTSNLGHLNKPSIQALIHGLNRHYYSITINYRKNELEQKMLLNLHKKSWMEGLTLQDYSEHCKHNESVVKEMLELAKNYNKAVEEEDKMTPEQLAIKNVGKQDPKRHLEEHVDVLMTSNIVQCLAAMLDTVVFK

[6] = target: T2, Carboxy-terminal domain RNA polymerase II polypeptide A small phosphatase 1 (Homo sapiens, UniProt Q9GZU7); assay: inhibitors of CTDSP1, concentration-response testing, biochemical assay, absorbance-based, actives from ultra-high-throughput screening (AID 540297); assay type: functional
T2 sequence (Q9GZU7 whole entry): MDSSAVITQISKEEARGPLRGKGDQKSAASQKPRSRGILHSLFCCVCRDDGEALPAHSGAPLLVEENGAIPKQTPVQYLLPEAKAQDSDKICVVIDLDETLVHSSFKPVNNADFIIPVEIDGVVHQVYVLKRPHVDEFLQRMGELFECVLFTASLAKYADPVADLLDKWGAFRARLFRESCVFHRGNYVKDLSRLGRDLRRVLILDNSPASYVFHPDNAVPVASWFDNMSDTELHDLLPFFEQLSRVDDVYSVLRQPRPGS

[7] = control 3'UTR Renilla luciferase suppression, dose response, counter-screen for Shn3 inhibitor project, cell-based, Clone20-Shn3RL, cherry-picked (AID 624133); assay type: functional
[8] = HepG2 cell cytotoxicity, dose response, cytotoxicity control for Shn3 inhibitor project, CellTiter-Glo, cherry-picked (AID 624134); assay type: functional, cell-based
Melanocortin receptor 4 = Melanocortin receptor 4 (Homo sapiens, UniProt P32245); assay type: functional, cell-based;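 note: Cell-based assay with luminescence read-out, confirmatory dose-response testing for agonist activity of biased ligands at MC4R; human U2OS cells with tagged receptor and beta-arrestin; potency of agonists that increase receptor coupling to beta-arrestin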
Chain of Melanocortin receptor 4 (P32245 whole entry): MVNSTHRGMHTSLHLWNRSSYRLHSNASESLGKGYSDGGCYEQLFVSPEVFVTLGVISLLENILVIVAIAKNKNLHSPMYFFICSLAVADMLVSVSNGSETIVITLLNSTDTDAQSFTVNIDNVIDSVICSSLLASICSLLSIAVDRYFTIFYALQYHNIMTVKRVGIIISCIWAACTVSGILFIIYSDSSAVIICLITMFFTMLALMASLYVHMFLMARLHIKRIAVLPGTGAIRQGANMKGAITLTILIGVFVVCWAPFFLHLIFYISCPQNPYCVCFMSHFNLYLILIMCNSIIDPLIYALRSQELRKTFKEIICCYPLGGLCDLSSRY

[9] = cytotoxicity toward NIH3T3 fibroblasts, dose response, counter-screen, cell-based, ATP luminescence, mouse fibroblasts (AID 2010); assay type: functional;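 note: cells exposed to compound for about 90 hours before reading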
[10] = Shn3 3'UTR reporter inhibitors, dose response, cell-based, Clone20 osteoblasts, firefly luciferase, cherry-picked (AID 624132); assay type: functional;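 note: firefly luciferase luminescence from reporter carrying the Shn3 3'UTR in osteoblasts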
[11] = inhibitors of intracellular T. cruzi replication, confirmation, NIH3T3 host cells, beta-gal luminescence (AID 2044); assay type: functional, cell-based;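 note: intracellular parasites grown in NIH/3T3 mouse fibroblasts as host cells; luminescent beta-galactosidase reporter signal from transgenic T. cruzi replicating inside host cells; inhibitors lower the luminescence signal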
[12] = target: Dual specificity protein phosphatase 3 (Homo sapiens, UniProt P51452); assay: VHR phosphatase inhibition, dose response, selectivity assay for STEP inhibitor project, biochemical (AID 602374); assay type: functional; conditions: read-out: IC50_Mean
Chain of Dual specificity protein phosphatase 3 (P51452 whole entry): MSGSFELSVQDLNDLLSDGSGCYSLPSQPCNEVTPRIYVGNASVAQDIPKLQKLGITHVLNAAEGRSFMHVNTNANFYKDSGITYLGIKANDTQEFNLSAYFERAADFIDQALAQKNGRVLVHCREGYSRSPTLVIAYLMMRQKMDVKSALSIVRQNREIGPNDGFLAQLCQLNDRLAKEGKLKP

[13] = target: Tyrosine-protein phosphatase non-receptor type 5 (Homo sapiens, UniProt P54829); assay: STEP phosphatase inhibitors, confirmation, biochemical, fluorescence intensity, uHTS hits (AID 602372); assay type: functional; conditions: read-out: IC50_Mean
Chain of Tyrosine-protein phosphatase non-receptor type 5 (P54829 whole entry): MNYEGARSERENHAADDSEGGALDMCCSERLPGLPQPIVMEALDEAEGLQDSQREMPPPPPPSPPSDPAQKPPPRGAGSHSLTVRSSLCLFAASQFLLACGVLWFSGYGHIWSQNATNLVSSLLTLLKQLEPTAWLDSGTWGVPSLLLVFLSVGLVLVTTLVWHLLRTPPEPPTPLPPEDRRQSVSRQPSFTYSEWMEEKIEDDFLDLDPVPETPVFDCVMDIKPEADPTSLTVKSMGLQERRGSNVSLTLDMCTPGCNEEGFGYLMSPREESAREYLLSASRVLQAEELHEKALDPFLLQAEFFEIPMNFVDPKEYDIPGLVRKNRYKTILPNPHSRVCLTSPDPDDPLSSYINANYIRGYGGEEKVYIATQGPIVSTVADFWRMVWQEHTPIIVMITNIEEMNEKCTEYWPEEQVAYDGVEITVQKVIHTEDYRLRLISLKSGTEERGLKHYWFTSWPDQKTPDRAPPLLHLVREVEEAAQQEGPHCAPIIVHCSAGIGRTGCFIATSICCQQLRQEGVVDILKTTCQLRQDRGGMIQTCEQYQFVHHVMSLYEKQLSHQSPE

[14] = target: Tyrosine-protein phosphatase non-receptor type 11 (Homo sapiens, UniProt Q06124); assay: SHP2 phosphatase inhibition, dose response, selectivity assay for STEP inhibitor project, biochemical (AID 602367); assay type: functional; conditions: read-out: IC50_Mean
Chain of Tyrosine-protein phosphatase non-receptor type 11 (Q06124 whole entry): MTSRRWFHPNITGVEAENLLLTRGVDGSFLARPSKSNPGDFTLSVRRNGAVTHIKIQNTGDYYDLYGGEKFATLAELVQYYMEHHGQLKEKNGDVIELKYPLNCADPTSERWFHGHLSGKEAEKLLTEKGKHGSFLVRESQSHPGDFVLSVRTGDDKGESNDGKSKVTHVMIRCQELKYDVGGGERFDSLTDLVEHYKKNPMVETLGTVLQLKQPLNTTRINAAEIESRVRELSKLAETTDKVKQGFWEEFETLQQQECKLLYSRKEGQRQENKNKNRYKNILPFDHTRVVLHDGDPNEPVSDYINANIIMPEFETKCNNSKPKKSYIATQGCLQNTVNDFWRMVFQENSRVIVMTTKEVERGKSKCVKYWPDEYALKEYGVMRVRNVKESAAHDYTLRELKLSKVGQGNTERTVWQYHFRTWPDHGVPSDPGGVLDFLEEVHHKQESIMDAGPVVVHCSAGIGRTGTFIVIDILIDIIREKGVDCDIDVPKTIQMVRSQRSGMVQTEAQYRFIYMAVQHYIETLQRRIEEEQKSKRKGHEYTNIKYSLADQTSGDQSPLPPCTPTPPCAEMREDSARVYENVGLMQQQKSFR

Protein RecA = target: T3, Protein RecA (Mycobacterium tuberculosis, UniProt P9WHJ3); assay: Fluorescence Cell-Free Homogeneous Dose Retest to Identify Inhibitors of RecA-Intein Splicing Activity. [Related pubchem assays (depositor defined):AID2097, AID2223, AID489010, AID492950]; assay type: functional
T3 sequence (P9WHJ3 whole entry): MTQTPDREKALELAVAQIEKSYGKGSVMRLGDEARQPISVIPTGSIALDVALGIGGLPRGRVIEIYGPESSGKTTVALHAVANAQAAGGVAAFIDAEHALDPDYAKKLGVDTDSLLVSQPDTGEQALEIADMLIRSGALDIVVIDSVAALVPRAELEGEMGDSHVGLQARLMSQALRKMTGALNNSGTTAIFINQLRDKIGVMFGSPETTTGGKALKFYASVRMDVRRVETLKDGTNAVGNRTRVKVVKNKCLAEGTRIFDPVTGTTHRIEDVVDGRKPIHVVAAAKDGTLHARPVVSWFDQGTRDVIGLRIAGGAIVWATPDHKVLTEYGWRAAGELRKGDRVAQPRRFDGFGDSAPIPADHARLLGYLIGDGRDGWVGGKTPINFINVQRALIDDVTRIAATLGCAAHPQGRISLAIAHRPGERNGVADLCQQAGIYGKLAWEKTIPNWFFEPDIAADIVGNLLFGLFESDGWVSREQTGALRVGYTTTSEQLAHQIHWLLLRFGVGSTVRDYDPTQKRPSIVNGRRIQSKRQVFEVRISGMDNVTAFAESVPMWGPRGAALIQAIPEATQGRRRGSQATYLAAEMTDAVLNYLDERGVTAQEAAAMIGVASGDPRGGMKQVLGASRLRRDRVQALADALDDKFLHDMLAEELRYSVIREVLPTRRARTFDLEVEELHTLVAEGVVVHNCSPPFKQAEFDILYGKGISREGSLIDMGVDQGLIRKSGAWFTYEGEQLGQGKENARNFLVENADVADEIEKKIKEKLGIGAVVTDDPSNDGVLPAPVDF

[15] = target: T4, Ubiquitin-conjugating enzyme E2 N (Homo sapiens, UniProt P61088); assay type: functional
T4 sequence (P61088 whole entry): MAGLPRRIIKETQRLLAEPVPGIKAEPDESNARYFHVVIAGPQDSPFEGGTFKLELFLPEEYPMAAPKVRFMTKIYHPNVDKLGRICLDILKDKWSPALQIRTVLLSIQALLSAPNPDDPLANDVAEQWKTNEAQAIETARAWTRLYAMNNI

[16] = target: T5, Apoptotic protease-activating factor 1 (Homo sapiens, UniProt O14727); assay type: functional
T5 sequence (O14727 whole entry): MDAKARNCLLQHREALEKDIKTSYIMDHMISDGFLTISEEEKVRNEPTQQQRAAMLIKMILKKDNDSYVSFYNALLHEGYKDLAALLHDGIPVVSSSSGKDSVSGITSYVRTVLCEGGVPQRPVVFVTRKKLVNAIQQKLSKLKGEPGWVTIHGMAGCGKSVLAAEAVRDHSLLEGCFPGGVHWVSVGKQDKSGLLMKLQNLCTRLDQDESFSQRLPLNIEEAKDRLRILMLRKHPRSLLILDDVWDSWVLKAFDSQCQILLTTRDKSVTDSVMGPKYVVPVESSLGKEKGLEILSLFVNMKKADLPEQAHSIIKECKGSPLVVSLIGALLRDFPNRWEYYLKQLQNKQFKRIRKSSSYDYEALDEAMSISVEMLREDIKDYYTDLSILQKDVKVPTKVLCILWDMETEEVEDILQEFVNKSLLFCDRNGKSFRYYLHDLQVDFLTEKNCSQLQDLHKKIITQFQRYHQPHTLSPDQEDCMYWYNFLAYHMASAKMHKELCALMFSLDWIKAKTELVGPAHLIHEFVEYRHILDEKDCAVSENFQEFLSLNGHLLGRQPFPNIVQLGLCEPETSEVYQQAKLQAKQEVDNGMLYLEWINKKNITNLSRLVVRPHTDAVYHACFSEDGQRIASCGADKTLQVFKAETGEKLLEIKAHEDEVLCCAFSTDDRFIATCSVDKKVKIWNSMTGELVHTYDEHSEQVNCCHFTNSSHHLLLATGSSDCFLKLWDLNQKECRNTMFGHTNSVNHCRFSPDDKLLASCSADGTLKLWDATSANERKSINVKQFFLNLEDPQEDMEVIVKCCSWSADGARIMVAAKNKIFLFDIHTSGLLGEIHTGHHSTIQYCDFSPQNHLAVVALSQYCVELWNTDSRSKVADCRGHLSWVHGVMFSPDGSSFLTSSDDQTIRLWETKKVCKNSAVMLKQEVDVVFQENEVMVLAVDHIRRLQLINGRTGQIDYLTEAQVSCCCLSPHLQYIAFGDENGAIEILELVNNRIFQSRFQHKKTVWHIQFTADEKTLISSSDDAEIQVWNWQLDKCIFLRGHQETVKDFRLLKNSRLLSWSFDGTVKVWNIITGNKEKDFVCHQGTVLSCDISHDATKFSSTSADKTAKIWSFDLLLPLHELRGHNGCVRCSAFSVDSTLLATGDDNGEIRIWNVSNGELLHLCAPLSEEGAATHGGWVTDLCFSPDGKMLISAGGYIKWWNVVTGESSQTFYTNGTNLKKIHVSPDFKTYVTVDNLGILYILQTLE

[17] = target: T4, Ubiquitin-conjugating enzyme E2 N; assay type: functional; remark: listed apart in the source
Vero = assay: cells; assay type: functional; conditions: Chlorocebus sabaeus
[18] = target: Heat shock protein HSP 90-alpha (Homo sapiens, UniProt P07900); assay type: functional, organism-based
Bcl-2-related protein A1 = target: T6, Bcl-2-related protein A1 (Mus musculus, UniProt Q07440); assay type: functional;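 note: confirmatory dose–response counterscreen on Bfl-1, used to check hits from a UBC13 polyubiquitin inhibitor campaign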
T6 sequence (Q07440 whole entry): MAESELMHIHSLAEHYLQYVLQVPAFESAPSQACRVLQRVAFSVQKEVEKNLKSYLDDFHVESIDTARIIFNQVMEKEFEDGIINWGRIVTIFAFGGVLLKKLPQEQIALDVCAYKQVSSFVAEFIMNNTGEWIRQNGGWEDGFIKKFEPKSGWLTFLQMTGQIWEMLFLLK

[19] = target: T7, Replicative DNA helicase DnaB (Mycobacterium tuberculosis, UniProt P9WMR3); assay: DnaB intein splicing inhibitors, dose response, biochemical, cell-free fluorescence (AID 449749); assay type: functional
T7 sequence (P9WMR3 whole entry): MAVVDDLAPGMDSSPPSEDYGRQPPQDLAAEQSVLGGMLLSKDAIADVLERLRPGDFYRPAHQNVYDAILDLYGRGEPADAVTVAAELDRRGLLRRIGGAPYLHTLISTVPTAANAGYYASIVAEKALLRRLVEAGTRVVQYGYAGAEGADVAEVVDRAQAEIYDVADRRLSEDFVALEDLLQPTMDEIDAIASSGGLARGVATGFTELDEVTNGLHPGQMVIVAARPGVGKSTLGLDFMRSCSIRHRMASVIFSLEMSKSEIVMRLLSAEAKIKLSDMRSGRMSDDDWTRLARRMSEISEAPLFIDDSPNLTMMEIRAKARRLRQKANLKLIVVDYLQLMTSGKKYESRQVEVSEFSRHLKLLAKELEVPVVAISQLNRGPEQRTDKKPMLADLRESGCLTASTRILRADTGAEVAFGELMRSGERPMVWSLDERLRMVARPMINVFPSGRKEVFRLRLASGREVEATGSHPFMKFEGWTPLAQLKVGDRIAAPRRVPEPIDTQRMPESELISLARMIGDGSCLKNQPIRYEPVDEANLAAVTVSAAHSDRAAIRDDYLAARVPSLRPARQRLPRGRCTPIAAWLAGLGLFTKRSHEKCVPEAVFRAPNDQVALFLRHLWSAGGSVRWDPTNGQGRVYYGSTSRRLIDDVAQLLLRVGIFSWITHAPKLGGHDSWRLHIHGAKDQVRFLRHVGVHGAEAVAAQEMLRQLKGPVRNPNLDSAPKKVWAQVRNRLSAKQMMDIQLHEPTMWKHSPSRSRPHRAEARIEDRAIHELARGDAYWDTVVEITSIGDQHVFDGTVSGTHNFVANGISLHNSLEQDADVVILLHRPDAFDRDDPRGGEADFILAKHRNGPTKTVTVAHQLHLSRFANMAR

[20] = target: Neurotensin receptor type 1 (Homo sapiens, UniProt P30989); assay type: functional;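 note: Image-based confirmatory dose-response assay measuring agonist activity at NTR1; NTR1-expressing U2OS osteosarcoma cells imaged for beta-arrestin GFP spot formation; agonist potency where compounds increase beta-arrestin recruitment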
Chain of Neurotensin receptor type 1 (P30989 whole entry): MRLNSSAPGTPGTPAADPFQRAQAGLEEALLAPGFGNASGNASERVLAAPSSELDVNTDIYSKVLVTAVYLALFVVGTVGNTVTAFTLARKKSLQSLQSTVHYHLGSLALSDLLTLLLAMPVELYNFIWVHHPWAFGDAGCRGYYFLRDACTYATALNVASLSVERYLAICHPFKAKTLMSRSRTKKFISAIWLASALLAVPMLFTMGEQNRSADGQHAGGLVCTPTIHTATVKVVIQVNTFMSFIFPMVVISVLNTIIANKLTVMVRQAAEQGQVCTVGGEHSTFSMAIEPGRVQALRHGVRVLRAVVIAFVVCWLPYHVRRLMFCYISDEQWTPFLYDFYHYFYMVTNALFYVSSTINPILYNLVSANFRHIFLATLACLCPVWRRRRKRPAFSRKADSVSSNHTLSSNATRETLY

INS1 = assay: beta cell apoptosis inhibitors, cytokine rescue, dose response, luminescence, retest (AID 449756); assay type: functional, cell-based;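 note: cell death triggered by IL-1 beta plus TNF-alpha plus IFN-gamma mixture; protective hits raise ATP signal compared with cytokine alone wells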

O=C(Nc1ccccc1N1CCN(C(=O)c2ccc(Cl)cc2)CC1)c1cccnc1
IC50 [1]: 16.4 µM (inactive)

CC(=O)Nc1cc2c(nc1C)nc(C)n2Cc1ccc(Br)cc1
IC50 [1]: 15.5 µM (inactive)

CCCCn1c2ccc(F)cc2c2nnc(SCCN3CCOCC3)nc21
IC50 [2]: > 66 µM (inactive) | IC50 [3]: > 66 µM (inactive)

Cc1ccc(NC(=O)CCc2nc(O)c3c4c(sc3n2)CCCC4)nc1
IC50 (Prothrombin): 55 µM (active) | IC50 [4]: > 100 µM (inactive) | IC50 [5]: 23.1 µM (active) | IC50 [6]: 5.1 µM (active)

COc1ccc(CNCCc2ccc(Cl)cc2)cc1OCc1ccccc1
EC50 (cells): 0.114 µM (active) | AC50 [7]: 11.9 µM (active) | AC50 [8]: > 70 µM (inactive) | EC50 (Melanocortin receptor 4): > 9.91 µM (active) | EC50 [9]: > 60 µM (not active) | AC50 [10]: 5.59 µM (active) | EC50 [11]: < 0.1 µM (active)

S=C(c1ccc(Br)cc1)N1CCN(Cc2ccccc2)CC1
IC50 [12]: 0.719 µM (active) | IC50 [13]: 22.7 µM (inactive) | IC50 [14]: 1.81 µM (active)

CCCCCCCCCCOC(=O)Cn1c(COc2ccc(OC)cc2)[n+](C)c2ccccc21
EC50 (Protein RecA): 10.6 µM (active) and 11.1 µM (active) | AC50 [7]: 3.44 µM (active) | IC50 [15]: 12.5 µM (active) | IC50 [16]: 10.7 µM (active) and 13.4 µM (active) | IC50 [17]: 11 µM (active) | CC50 (Vero): > 25 µM (active) | EC50 (Melanocortin receptor 4): > 89.2 µM (inactive) | AC50 [18]: 38.2 µM (active) | IC50 (Bcl-2-related protein A1): 19.1 µM (active) | AC50 [10]: 2.01 µM (active) | AC50 [19]: 3.97 µM (active) and 4.05 µM (active) | EC50 [20]: 15.8 µM (active) | AC50 (INS1; Rattus norvegicus, INS1): 3.65 µM (active) | AC50 (INS1; ins1): 3.47 µM (active)
